Consider seven compounds from patent US10000500B2 (PROMEGA CORPORATION, priority 2016, dated 2018).

What all share (format): biochemical
The target of assay [1] is T1, NANOLUC® Luciferase (Oplophorus gracilirostris, UniProt Q9GV45, A31E/A60N/A81I/F95D/I117V/K70R/L54V/L99Q/M102K/N193R/P142E/Q151K/Q38R/Q45L/V71I/Y165I). The assay is described as follows: Luminescence assay with purified NANOLUC luciferase (Example 7). The conditions noted are these: bioluminescence with NANOLUC luciferase. How it is done: Each compound to be screened was dissolved in DMSO (5 mM) and then further diluted to 100 uM in NANO-GLO® Luciferase Assay Buffer. Each diluted substrate was then combined in equal volumes with purified NANOLUC® Luciferase diluted into CO2 independent media+10% FBS. Initial light output for each substrate was measured in a GLOMAXI-Multi+luminometer three minutes after substrate addition and then at five minute intervals as a means to determine signal half-life.
The synthesized coelenterazine analogues (compounds of formula (I) and (II)) were evaluated for their suitability as luciferase substrates. NANOLUC® luciferase was employed for the screening because it is a small (19 kDa), stable, and particularly bright enzyme.

For assay [2], the target named is T1, NANOLUC® Luciferase. Put plainly: Km and Vmax substrate titration with NanoLuc luciferase (Example 8). The conditions noted are these: for light produced by NanoLuc luciferase compared to Renilla: FIGS. 1A-1D. The protocol:
(§1) Each compound to be screened was diluted to a concentration of 100 uM in Renilla Glo Luciferase Assay buffer (Promega Corporation) and then further diluted to 2×serial dilution in Renilla Glo Luciferase Assay Buffer. NANOLUC® luciferase and Renilla luciferase were diluted to a concentration of 4 ng/ml in OptiMEM+0.1% FBS. 50 ul of each compound dilution was then mixed with 50 ul of each enzyme dilution and incubated for 1 minute at room temperature. Light output for each compound was measured on a GLOMAX®-Multi+ luminometer. Km and Vmax were calculated for each enzyme/substrate combination using a GraphPad Prism Michaelis-Menten non-linear fit (FIGS. 1A-ID).

For assay [3], the target named is T2, Renilla luciferase (Renilla reniformis, UniProt P27652).
T2 sequence (P27652 1-311): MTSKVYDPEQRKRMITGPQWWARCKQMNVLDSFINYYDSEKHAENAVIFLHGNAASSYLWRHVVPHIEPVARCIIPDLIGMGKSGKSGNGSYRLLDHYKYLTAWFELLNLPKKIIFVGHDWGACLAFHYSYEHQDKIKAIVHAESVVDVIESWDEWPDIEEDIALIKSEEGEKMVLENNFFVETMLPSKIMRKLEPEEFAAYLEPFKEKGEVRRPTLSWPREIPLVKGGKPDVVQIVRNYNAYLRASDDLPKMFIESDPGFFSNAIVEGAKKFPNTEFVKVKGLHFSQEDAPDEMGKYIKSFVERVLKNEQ
Put plainly: Km and Vmax substrate titration with Renilla luciferase (Example 8). How it is done:
as §1

Assay [4] has as its target T1, NANOLUC® Luciferase. Put plainly: Spectral measurements in various buffers with NANOLUC luciferase (Example 10). The following applies: for NanoGlo (spectral peak, Table 4) / OptiMEM (spectral peak, Table 4) / High / Low / Peak / Width: NanoLuc; for NanoGlo (spectral peak, Table 4): NanoGlo buffer; for High / Low / Peak / Width: emission spectrum; for shift of the NanoLuc luciferase spectral properties: FIGS. 3A-3C and 4A-4D. The protocol:
(§2) Each compound to be screened was diluted to a concentration of 100 uM (50 uM final concentration) in Renilla Glo Luciferase Assay buffer (Promega Corporation), NANO-GLO Luciferase Assay Buffer (Promega Corporation), or 20 uM (10 uM final) in OptiMEM+0.1% FBS. NANOLUC® luciferase and Renilla luciferase were serially diluted to 4, 40, and 400 ng/ml in OptiMEM+0.1% FBS. 50 ul of each compound dilution was mixed with 50 ul enzyme dilution and incubated for 1 minute at room temperature. Autoluminescence spectra of AS-353 was measured by adding 20 uM of substrate to OptiMEM+20% FBS and then 50 ul of this dilution was combined with 50 ul of OptiMEM+0.1% FBS. Spectral measurements were measured using a Tecan M-1000 luminometer. ([…]).

The target of assay [5] is T2, Renilla luciferase. Put plainly: Spectral measurements in various buffers with Renilla luciferase (Example 10). More on the design: Low / High / Width: unit not given here. The conditions noted are these: for RenillaGlo (spectral peak, Table 4): RenillaGlo buffer; for High / Low / Peak / Width: emission spectrum. The protocol:
as §2

Where [6] appears, read: NanoLuc 4 ng/ml, Renilla Glo buffer, Michaelis-Menten fit.
The mark [7] stands for this setting: Renilla luciferase 4 ng/ml, Renilla Glo buffer, Michaelis-Menten fit.

T1 sequence (Q9GV45 28-196 with tags or gaps with the stated changes limits assumed): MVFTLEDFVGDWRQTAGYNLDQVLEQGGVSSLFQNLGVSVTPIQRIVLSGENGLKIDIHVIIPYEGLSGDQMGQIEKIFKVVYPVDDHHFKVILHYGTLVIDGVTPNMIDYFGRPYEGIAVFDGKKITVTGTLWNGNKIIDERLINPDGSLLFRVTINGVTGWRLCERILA

Regarding `O=c1c(Cc2ccco2)nc2c(Cc3ccccc3)[nH]c(-c3ccccc3)cn1-2` [Furimazine, 8-benzyl-2-(furan-2-ylmethyl)-6-phenylimidazo[1,2-a]pyrazin-3(7H)-one], the “λmax, nm” value in assay [1] is listed as 460 nm. Further, the “light produced by NanoLuc luciferase compared to Renilla” value in assay [2] is listed as “significantly more light than Renilla”. In assay [2] (setting [6]), the Vmax was 33,470,000. In assay [3] (setting [7]), the Vmax is listed as 8,910. In assay [4], the “NanoGlo (spectral peak, Table 4)” value was 463 and the “OptiMEM (spectral peak, Table 4)” value is 463. In assay [4] (NanoGlo Buffer), this compound displayed a High of 520, a Low of 433, a Peak of 463 and a Width of 87. Also, in assay [4] (OptiMEM + 0.1% FBS), the High was 499, the Low worked out at 430, the Peak came out at 463 and the Width is 69. Besides, in assay [5] (Renilla), the “OptiMEM (spectral peak, Table 4)” value is listed as 430 and the “RenillaGlo (spectral peak, Table 4)” value turned out to be 436. Moreover, in assay [5] (Renilla/RenillaGlo), the High is recorded as 490, the Low amounted to 403, the Peak came out at 436 and the Width was 87. Also, in assay [5] (Renilla, OptiMEM + 0.1% FBS), the High is 472, the Low is given as 403, the Peak stood at 430 and the Width stood at 69.

As for `O=c1c(Cc2ccco2)nc2c(-c3ccnc4ccccc34)[nH]c(-c3ccccc3)cn1-2` [AS-310, 2-(furan-2-ylmethyl)-6-phenyl-8-(quinolin-4-yl)imidazo[1,2-a]pyrazin-3(7H)-one], the “λmax, nm” value in assay [1] is on record as 571 nm. Moreover, in assay [4], the “shift of the NanoLuc luciferase spectral properties” value (shortened to “shift”) is on record as “shifted the NanoLuc® luciferase spectral properties to red”; the “NanoGlo (spectral peak, Table 4)” value came out at 574; the “OptiMEM (spectral peak, Table 4)” value is 571. In assay [4] (NanoGlo Buffer), the High is reported as 631, the Low worked out at 526, the Peak is listed as 574 and the Width was 105. Moreover, in assay [4] (OptiMEM + 0.1% FBS), the High was 631, the Low turned out to be 520, the Peak worked out at 571 and the Width is reported as 111.

As a reminder, the Km is the concentration of substrate that gives half-maximal velocity. Take `Oc1ccc(-c2cn3c(O)c(Cc4ccccc4)nc3c(Cc3ccccc3)n2)cc1` [Coelenterazine-H]: the “light produced by NanoLuc luciferase compared to Renilla” value in assay [2] was “significantly more light than Renilla”. Further, in assay [2] (setting [6]), the Vmax is given as 19,790,000. Also, the Km in assay [2] (NanoLuc 4 ng/ml, Renilla Glo buffer, Michaelis-Menten fit, read-out: Km) was 36.4 µM. Moreover, the “more light with Renilla luciferase compared to Furimazine” value in assay [3] (FIGS. 1A-1D) is around 7 ×. In assay [3] (setting [7]), the Km amounted to 3.26 µM and the Vmax was 64,494. Moreover, in assay [4], the “NanoGlo (spectral peak, Table 4)” value turned out to be 466 and the “OptiMEM (spectral peak, Table 4)” value is on record as 460. In assay [4] (NanoGlo Buffer), the High is 508, the Low is recorded as 433, the Peak is on record as 466 and the Width came to 75. Further, in assay [4] (OptiMEM + 0.1% FBS), the High is reported as 502, the Low came out at 433, the Peak was 460 and the Width stood at 69. For the same compound, in assay [5] (Renilla), the “OptiMEM (spectral peak, Table 4)” value came out at 487 and the “RenillaGlo (spectral peak, Table 4)” value was 490. In assay [5] (Renilla/RenillaGlo), the High was found to be 541, the Low is 454, the Peak came out at 490 and the Width is recorded as 87. In assay [5] (Renilla, OptiMEM + 0.1% FBS), the High is on record as 535, the Low was determined as 451, the Peak turned out to be 487 and the Width worked out at 84.

Consider `O=c1c(Cc2ccco2)nc2c(-c3ccccc3)[nH]c(-c3ccccc3)cn1-2` [AS-174, 2-(furan-2-ylmethyl)-6,8-diphenylimidazo[1,2-a]pyrazin-3(7H)-one], for which the “λmax, nm” value in assay [1] worked out at 496 nm. Further, in assay [4], the “shift” value is reported as “shifted the NanoLuc® luciferase spectral properties to red”; the “NanoGlo (spectral peak, Table 4)” value worked out at 493; the “OptiMEM (spectral peak, Table 4)” value is 490. In assay [4] (NanoGlo Buffer), this compound displayed a High of 541, a Low of 460, a Peak of 493 and a Width of 81. In assay [4] (OptiMEM + 0.1% FBS), the High turned out to be 535, the Low worked out at 460, the Peak came out at 490 and the Width turned out to be 75.

For the compound `N#Cc1ccc(-c2[nH]c(-c3ccccc3)cn3c(=O)c(Cc4ccco4)nc2-3)s1` [AS-262, 5-(2-(furan-2-ylmethyl)-3-oxo-6-phenyl-3,7-dihydroimidazo[1,2-a]pyrazin-8-yl)thiophene-2-carbonitrile], in assay [1], the “λmax, nm” value is 574 nm. Further, in assay [4], the “shift” value was “shifted the NanoLuc® luciferase spectral properties to red”; the “NanoGlo (spectral peak, Table 4)” value came to 577; the “OptiMEM (spectral peak, Table 4)” value is listed as 574. In assay [4] (NanoGlo Buffer), the High is 634, the Low was determined as 535, the Peak was determined as 577 and the Width worked out at 99. Besides, in assay [4] (OptiMEM + 0.1% FBS), the High is given as 625, the Low stood at 532, the Peak was found to be 574 and the Width stood at 93.

For `Nc1ccccc1-c1cn2c(=O)c(Cc3ccco3)nc-2c(Cc2ccccc2)[nH]1` [JRW-0446, 6-(2-aminophenyl)-8-benzyl-2-(furan-2-ylmethyl)imidazo[1,2-a]pyrazin-3(7H)-one], the “λmax, nm” value in assay [1] is 487 nm.

As for `N#Cc1ccc(-c2[nH]c3c(n4c(=O)c(Cc5ccco5)nc2-4)CCc2ccccc2-3)s1` [AS-340, 5-(2-(furan-2-ylmethyl)-3-oxo-3,5,6,11-tetrahydrobenzo[f]imidazo[1,2-a]quinoxalin-12-yl)thiophene-2-carbonitrile], the “λmax, nm” value in assay [1] came to 574 nm.
